Reference: PubChem BioAssay (NCI)
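In this assay, cells in 96-well plates receive the compound at five concentrations for 48 hours. Endpoints are linearly interpolated between the surrounding concentrations. The concentration for 50% growth inhibition is given as GI50. TGI: total growth inhibition.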

How the values were obtained:
Experiment in all cases: NCI anticancer screen, dose series, 48 h
COLO 205 colon = system: COLO 205 colon
IGROV1 ovarian = system: IGROV1 ovarian
OVCAR-4 ovarian = system: OVCAR-4 ovarian
MDA-MB-435 = system: MDA-MB-435
HL-60(TB) leukemia = system: HL-60(TB) leukemia
SR leukemia = system: SR leukemia
SW-620 colon = system: SW-620 colon
RPMI-8226 leukemia = system: RPMI-8226 leukemia
HS 578T breast = system: HS 578T breast
HCT-15 colon = system: HCT-15 colon
NCI-H522 lung = system: NCI-H522 lung
OVCAR-5 ovarian = system: OVCAR-5 ovarian
HOP-92 NSCLC = system: HOP-92 NSCLC
HT29 colon = system: HT29 colon
SK-OV-3 ovarian = system: SK-OV-3 ovarian
NCI-H226 lung = system: NCI-H226 lung
CAKI-1 renal = system: CAKI-1 renal
NCI/ADR-RES ovarian = system: NCI/ADR-RES ovarian
UACC-62 melanoma = system: UACC-62 melanoma
SN12C renal = system: SN12C renal
EKVX NSCLC = system: EKVX NSCLC
SK-MEL-5 melanoma = system: SK-MEL-5 melanoma
KM12 colon = system: KM12 colon
UACC-257 melanoma = system: UACC-257 melanoma
MDA-MB-231 breast = system: MDA-MB-231 breast
HOP-62 NSCLC = system: HOP-62 NSCLC
HCT-116 colon = system: HCT-116 colon
LOX IMVI melanoma = system: LOX IMVI melanoma
U251 CNS = system: U251 CNS
SK-MEL-2 melanoma = system: SK-MEL-2 melanoma
MOLT-4 leukemia = system: MOLT-4 leukemia
UO-31 renal = system: UO-31 renal
SF-539 CNS = system: SF-539 CNS
786-0 renal = system: 786-0 renal
MCF7 breast = system: MCF7 breast
T-47D breast = system: T-47D breast
ACHN renal = system: ACHN renal
SF-268 CNS = system: SF-268 CNS
DU-145 prostate = system: DU-145 prostate
A549 NSCLC = system: A549 NSCLC
M14 melanoma = system: M14 melanoma
RXF 393 renal = system: RXF 393 renal
A498 renal = system: A498 renal
OVCAR-8 ovarian = system: OVCAR-8 ovarian
SNB-19 CNS = system: SNB-19 CNS
TK-10 renal = system: TK-10 renal
BT-549 breast = system: BT-549 breast
NCI-H460 lung = system: NCI-H460 lung
NCI-H23 lung = system: NCI-H23 lung
SK-MEL-28 melanoma = system: SK-MEL-28 melanoma
HCC-2998 colon = system: HCC-2998 colon
K-562 leukemia = system: K-562 leukemia
PC-3 prostate = system: PC-3 prostate
SF-295 CNS = system: SF-295 CNS
CCRF-CEM leukemia = system: CCRF-CEM leukemia

COc1ccc(C(=O)c2c(N)c(C#N)cn2-c2cccc(OC)c2)cc1
GI50 (COLO 205 colon): 3.01 µM | TGI (COLO 205 colon): 23 µM | GI50 (IGROV1 ovarian): 5 µM | TGI (IGROV1 ovarian): > 100 µM | GI50 (OVCAR-4 ovarian): 18 µM | TGI (OVCAR-4 ovarian): > 100 µM | GI50 (MDA-MB-435): 0.788 µM | TGI (MDA-MB-435): 4.49 µM | GI50 (HL-60(TB) leukemia): 2.01 µM | TGI (HL-60(TB) leukemia): 4.91 µM | GI50 (SR leukemia): 0.775 µM | TGI (SR leukemia): 14.4 µM | GI50 (SW-620 colon): 2.85 µM | TGI (SW-620 colon): > 100 µM | GI50 (RPMI-8226 leukemia): 2.94 µM | TGI (RPMI-8226 leukemia): 15.7 µM | GI50 (HS 578T breast): 2.42 µM | TGI (HS 578T breast): 8.66 µM | GI50 (HCT-15 colon): 2.49 µM | TGI (HCT-15 colon): > 100 µM | GI50 (NCI-H522 lung): 1.99 µM | TGI (NCI-H522 lung): 7.51 µM | GI50 (OVCAR-5 ovarian): 7.36 µM | TGI (OVCAR-5 ovarian): > 100 µM | GI50 (HOP-92 NSCLC): 9.53 µM | TGI (HOP-92 NSCLC): > 100 µM | GI50 (HT29 colon): 2.64 µM | TGI (HT29 colon): 20.2 µM | GI50 (SK-OV-3 ovarian): 4.09 µM | TGI (SK-OV-3 ovarian): > 100 µM | GI50 (NCI-H226 lung): 4.5 µM | TGI (NCI-H226 lung): > 100 µM | GI50 (CAKI-1 renal): 3.2 µM | TGI (CAKI-1 renal): > 100 µM | GI50 (NCI/ADR-RES ovarian): 2.35 µM | TGI (NCI/ADR-RES ovarian): > 100 µM | GI50 (UACC-62 melanoma): 3.22 µM | TGI (UACC-62 melanoma): > 100 µM | GI50 (SN12C renal): 5.64 µM | TGI (SN12C renal): > 100 µM | GI50 (EKVX NSCLC): 4.68 µM | TGI (EKVX NSCLC): > 100 µM | GI50 (SK-MEL-5 melanoma): 3.19 µM | TGI (SK-MEL-5 melanoma): 23.2 µM | GI50 (KM12 colon): 4.17 µM | TGI (KM12 colon): > 100 µM | GI50 (UACC-257 melanoma): 9.48 µM | TGI (UACC-257 melanoma): > 100 µM | GI50 (MDA-MB-231 breast): 7.8 µM | TGI (MDA-MB-231 breast): > 100 µM | GI50 (HOP-62 NSCLC): 4.12 µM | TGI (HOP-62 NSCLC): > 100 µM | GI50 (HCT-116 colon): 3.5 µM | TGI (HCT-116 colon): > 100 µM | GI50 (LOX IMVI melanoma): 4.6 µM | TGI (LOX IMVI melanoma): > 100 µM | GI50 (U251 CNS): 3.45 µM | TGI (U251 CNS): > 100 µM | GI50 (SK-MEL-2 melanoma): 4.58 µM | TGI (SK-MEL-2 melanoma): > 100 µM | GI50 (MOLT-4 leukemia): 3.65 µM | TGI (MOLT-4 leukemia): 17.9 µM | GI50 (UO-31 renal): 5.42 µM | TGI (UO-31 renal): > 100 µM | GI50 (SF-539 CNS): 2.41 µM | TGI (SF-539 CNS): 8.52 µM | GI50 (786-0 renal): 4.64 µM | TGI (786-0 renal): > 100 µM | GI50 (MCF7 breast): 3.07 µM | TGI (MCF7 breast): > 100 µM | GI50 (T-47D breast): 3.72 µM | TGI (T-47D breast): > 100 µM | GI50 (ACHN renal): 6.52 µM | TGI (ACHN renal): > 100 µM | GI50 (SF-268 CNS): 5.65 µM | TGI (SF-268 CNS): > 100 µM | GI50 (DU-145 prostate): 4.7 µM | TGI (DU-145 prostate): > 100 µM | GI50 (A549 NSCLC): 5.84 µM | TGI (A549 NSCLC): > 100 µM | GI50 (M14 melanoma): 2.51 µM | TGI (M14 melanoma): > 100 µM | GI50 (RXF 393 renal): 2.05 µM | TGI (RXF 393 renal): 6.1 µM | GI50 (A498 renal): 2.73 µM | TGI (A498 renal): 7.8 µM | GI50 (OVCAR-8 ovarian): 5.3 µM | TGI (OVCAR-8 ovarian): > 100 µM | GI50 (SNB-19 CNS): 3.92 µM | TGI (SNB-19 CNS): > 100 µM | GI50 (TK-10 renal): 6.14 µM | TGI (TK-10 renal): > 100 µM | GI50 (BT-549 breast): 4.41 µM | TGI (BT-549 breast): > 100 µM | GI50 (NCI-H460 lung): 3.41 µM | TGI (NCI-H460 lung): > 100 µM | GI50 (NCI-H23 lung): 5.61 µM | TGI (NCI-H23 lung): > 100 µM | GI50 (SK-MEL-28 melanoma): 49.8 µM | TGI (SK-MEL-28 melanoma): > 100 µM | GI50 (HCC-2998 colon): 4.98 µM | TGI (HCC-2998 colon): 97.4 µM | GI50 (K-562 leukemia): 0.707 µM | TGI (K-562 leukemia): 8.57 µM | GI50 (PC-3 prostate): 3.75 µM | TGI (PC-3 prostate): > 100 µM | GI50 (SF-295 CNS): 2.9 µM | TGI (SF-295 CNS): > 100 µM | GI50 (CCRF-CEM leukemia): 2.68 µM | TGI (CCRF-CEM leukemia): 9.83 µM
